From patent publication US12377112B2, “Methods of treating neurocognitive disorders, chronic pain and reducing inflammation” (priority 2019, dated 2025)
Marks after values point to notes of the source that are not given here.

Legend:
[1] = tested on: male C57BL/6 mice; assay: Chronic constriction injury (CCI) model of neuropathic pain, von Frey paw withdrawal threshold; assay type: in vivo, mouse
Procedure: To determine whether psilocybin may alleviate chronic neuropathic pain, various doses of psilocybin were tested in a mouse model of chronic constriction injury (CCI).
Male C57BL/6 mice (age 6-7 weeks, source: Charles River UK) were housed in standard caging in groups of 2-4, with free access to food (5CR4, Purina) and water (except during placement in the test box) on a 12/12 light/dark cycle.
All animals underwent behavioral testing of mechanical allodynia on three consecutive days (Day −2, Day−1 and Day 0) prior to surgery in order to determine the baseline withdrawal thresholds. Briefly, Static mechanical (tactile) allodynia was assessed by measurement of withdrawal threshold using calibrated (force; g) von-Frey monofilaments (Touch-Test Sensory Evaluator; Scientific Marketing Associates) applied to the plantar surface of the hind-paw. The animals were placed in individual Perspex boxes on a raised metal mesh for 30-40 minutes before the test. A series of graduated von Frey hairs (0.07, 0.16, 0.4, 0.6 and 1 g) was applied in sequence with a protocol of 1 second on 1 second off, repeated 10 times. Each hair was applied perpendicularly to the center of the ventral surface of the paw until it slightly bends. The force applied to the hind-paw of the animal to induce 5 responses out of 10 trials was recorded as paw withdrawal threshold (PWT). Three baseline paw withdrawal thresholds were taken on ipsilateral paws. The mean of the last two readings used as the baseline withdrawal threshold.
Subsequently, surgery was performed under anesthesia (Isoflurane mixed with oxygen, 3:1, 2 L/min) to tie three loose ligatures of prolene (7-0, Ethicon) around the sciatic nerve, with 1 mm spacing between each. The nerve was then returned below the muscle layer and the wound closed using absorbable sutures (Vicryl).
Following recovery from surgery, Von Frey assessment of mechanical allodynia was taken on days 19 and 22. Animals were then ranked and randomized (based on a Latin square design) to treatment groups according to the percentage change (compared to pre-surgery baseline) of the mean mechanical withdrawal threshold observed on days 19 and 22. Only those animals showing a PWT percentage change of >50% from pre-surgery baseline were included in the study.
On day 23, the animals were dosed with psilocybin (1, 3 or 10 mg/kg by intraperitoneal injection) or vehicle (10 mL/kg by intraperitoneal injection). Nerve pain medication Pregabalin (15 mg/kg administered orally) was also used as a positive control. Allodynia was then assessed at 0.5, 4 and 24 hours post-treatment timepoint (PTT).

[2] = tested on: human iPSC-derived neurons; assay: Neurite outgrowth in human iPSC-derived neurons; assay type: cell-based
Procedure: The neurotrophic effect of psilocin was tested on human iPSC-derived neuronal cultures. Two parameters were evaluated: the average number of neurites per neuron, and the average total neurite length per neuron. Briefly, neurons establish physical connections between them in order to create neuronal networks.
Cryopreserved iCell neurons were thawed and plated according to Cellular Dynamics International instructions. The pharmacological treatments were carried out 2 hours after the cell plating. The cells were maintained in a humidified incubator at 37° C. in 5% CO2-95% air atmosphere.
Stock solutions of psilocin were prepared in 100% DMSO at 1000 times the final concentration in the culture media (1000× concentration).
For each culture, each condition was performed in sextuplet.
Each plate contained two types of other experimental conditions: the control condition treated with vehicle and the culture treated with Brain-derived neutrophic factor (BDNF).
Plate 1 and 2: Cells were treated with psilocin at 3 different concentrations: 0.03 μM, 0.1 μM, 0.3 μM. The stock solution was prepared fresh in 100% DMSO at 10 mM. BDNF was used in parallel.
Ten days after plating, cultures were fixed with paraformaldehyde in PBS (phosphate buffered saline) (4%, Sigma). Then, cells were successively permeabilized, saturated with PBS (containing 3% of BSA) and incubated for 1 h with anti-beta III tubulin antibody (Sigma) at 1/10 000 in PBS containing 0.5% of BSA (bovine serum albumin). Cells were first washed and were then incubated 1 h with goat anti-mouse antibody coupled with AF488 (Invitrogen A11001) diluted at 1/1000 in PBS containing 0.5% of BSA. Finally, nuclei are stained with DAPI 1 mg/ml at 1/1000 in PBS containing 0.5% of BSA. After rinsing them with PBS, the plate was filmed and neurite networks were examined and analyzed using High-Content Screening (CellInsight, Thermo Scientific).
The evaluation of neurite outgrowth was performed using the average number of neurites per neuron and the average of total neurite length per neuron, using Sholl method (Bird & Cuntz, 2019). (See FIG. 59A, FIG. 59B, FIG. 60A, FIG. 60B).

[3] = tested on: rat primary hippocampal culture, Aβ 1-40 intoxication; assay: Fibrillated amyloid-β damage on cultures of hippocampal neurons (MTT viability); assay type: cell-based
Source text: Amyloid-β toxicity is a hallmark of Alzheimer's disease, and is also frequently seen in multiple sclerosis lesions. In this study, the neuroprotective effect of psilocin on amyloid-β-induced neuronal death in rat primary hippocampal culture was investigated.
Female Wistar rats of 19 days gestation were killed by cervical dislocation and foetuses were removed from the uterus. Their brains were placed in ice-cold medium of Leibovitz (L15, Gibco, Fisher bioblock, France). Hippocampi were carefully removed, and the hippocampal neurons were dissociated by trypsinization for 30 min at 37° C. (trypsin-EDTA, Gibco) in presence of 0.1 mg/ml DNAse I (Roche, France). […] Viable cells were counted in a Neubauer cytometer using the trypan blue exclusion test (Sigma). […]
Psilocin was added to cells 10 minutes or 48 hours before amyloid-β intoxication. Neuronal viability was assessed 48 hours after amyloid-β intoxication. […]
Two days after Aβ exposure (day 11), cell viability was assessed by a measurement of cell metabolic activity using the CellTiter96® non-radioactive kit (MTT, Promega, Charbonnières, France). […] Solubilization solution was added and visible wavelength absorbance data was collected 4 hours later using a 96-well plate reader at 570 nm and 630 nm for non-specific background (Multiskan EX, Thermo Fisher).

[4] = tested on: rat embryo mesencephalic cells, 6-OHDA; assay: 6-OHDA damage on mesencephalic neuronal cultures (TH positive neurons); assay type: cell-based; settings: 1 μM, 3 μM and 10 μM, one hour prior to 15 μM 6-OHDA
Procedure: The neuroprotective effect of psilocin against 6-OHDA-mediated injury on mesencephalic neuronal cultures was investigated.
A primary culture of rat embryo mesencephalic cells was plated on a 96-well plate. The cells were maintained at 37° C. in 5% CO2. Half of the medium was changed on day 2.
On day 6, the culture medium was removed and replaced by media containing psilocin (0.03 μM, 0.1 μM, 0.3 μM, 1 μM, 3 μM, or 10 μM), a negative control (saline vehicle, labelled control in FIG. 10), or a positive control (brain-derived neurotrophic factor (BDNF) and glial cell-derived neurotrophic factor (GDNF))). After one hour, 15 μM 6-OHDA was added for 48 hours.
On day 8, immunodetection was used to determine the number of tyrosine hydroxylase positive neurons.
Neuronal viability was assessed 48 hours after 6-OHDA intoxication and measured by the number of TH (tyrosine hydroxylase) positive neurons. The compound 6-OHDA kills specifically dopaminergic neurons, mimicking the cellular pathophysiology of Parkinson's disease. […] The result for each well was expressed as a percentage by setting the density of tyrosine hydroxylase positive cells under control conditions to 100%. The result for each condition was reported as mean (±S.E.M.) from 4 independent cultures.

[5] = tested on: Wistar-Kyoto (WKY) rats; assay: Sleep-wake amounts (EEG/EMG) in Wistar-Kyoto rats; assay type: in vivo, rat; settings: 5 mg/kg and 10 mg/kg s.c.
Source text: Since WKY rats show decreased sensitivity to conventional monoamine-based antidepressant treatment, they are used as a model of TRD.
Male (WKY) rats (200-250 g) were implanted with electroencephalography (EEG) and electromyography (EMG) electrodes and telemetry transmitters under general anaesthesia (2-5% isoflurane in Oxygen). A telemetry transmitter (HD-502, Data Sciences International) was placed in the peritoneal cavity, and the wires of the transmitter were passed through the muscle wall and then sub-dermally to the scalp to act as EEG/EMG electrodes. Two bore holes were made in the skull (Fronto-parietal coordinates; Bregma +2 mm anterior, midline +1.0 mm lateral and Lambda 0 mm, +1.5 mm lateral). The positive EEG electrode was attached to the anterior bore hole and the negative EEG electrode to the posterior bore hole. Both electrodes were secured in place using a suitable adhesive agent (Cyanoacrylate gel, RS components). […]
Animals were maintained on a 12/12 hour light dark cycle. On study days, the animals were placed in recording boxes and EEG/EMG, locomotor activity, as well as body temperature were recorded for 0.5 h before and 24 h after each dosing. […]
The subsequent EEG/EMG recordings were automatically scored as wake, non-REM (NREM) sleep, or REM sleep in 10 second epochs using SleepSign (Kissei Comtec, Japan). […]

CC(C)C[C@H](CN)CC(=O)O [pregabalin, reference compound]
Force-induced paw withdrawal, mean ([1]; 15 mg/kg PO group, D19-22 Neuropathic baseline (before dosing)): 0.13 g | Force-induced paw withdrawal, mean ([1]; 15 mg/kg PO group, D-2 D-1 Baseline (before surgery and dosing)): 0.67 g | Force-induced paw withdrawal, mean ([1]; 15 mg/kg PO, D23 0.5 hours PTT): 0.19 g | Force-induced paw withdrawal, mean ([1]; 15 mg/kg PO, D23 4 hours PTT): 0.46* g | Force-induced paw withdrawal, mean ([1]; 15 mg/kg PO, D24 24 hours PTT): 0.16 g | Paw withdrawal threshold vs neuropathic baseline ([1]; 15 mg/kg orally, 4 hours): significant increase

CN(C)CCc1c[nH]c2cccc(O)c12 [psilocin]
Average lengths of neurites ([2]; 0.03 μM, treated at Day 0): significant increases | Average length of neurites ([2]; 0.03 μM, treated at Day 3): increase | Number of neurites per neurons ([2]; 0.03 μM, treated at Day 3): increase | Length of neurites ([2]; 0.1 μM): increased | Neuronal viability after amyloid-β ([3]; 10 μM, applied 10 minutes prior to amyloid-β): increased neuronal viability | Neuronal viability after amyloid-β ([3]; 0.3, 1, 3 and 10 μM, applied 48 hours prior to amyloid-β): increased neuronal viability | Neuronal viability (TH positive neurons) after 6-OHDA [4]: increased neuronal viability

CNC1(c2ccccc2Cl)CCCCC1=O (centres unmarked) [ketamine]
Amount of REM sleep [5]: decreased the amount of REM sleep in a dose-dependent manner
